Data taken from US20080107603A1, “Neuroprotectant methods, compositions, and screening methods thereof” (priority 2002, published 2008).

Assays:
[1] = system: PC12 cells; test: MTT dye reduction assay, Aβ25-35-induced cytotoxicity; format: cell-based, Rat; settings: 1 mM EGT, added 30 min prior to Aβ25-35; 36 h
Experimental: (§1) PC12 cells were maintained in DMEM supplemented with 10% heat-inactivated horse serum and 5% fetal bovine serum at 37° C. in a humidified atmosphere of 10% CO2/90% air. All cells were cultured in poly-D-lysine coated culture dishes. The medium was changed every other day, and cells were plated at an appropriate density according to each experimental scale. After 24 h subculture, cells were switched to serum-free N-2 defined medium for treatment. For determination of cell viability, PC12 cells were initially plated at a density of 4×10^4 cells/300 μl in 48-well plates, and the cell viability was determined by the conventional MTT reduction and the lactate dehydrogenase (LDH) release assay as described below.
The MTT assay is a sensitive measurement of the normal metabolic status of cells, particularly that of mitochondria, which reflects early cellular redox changes. After incubation, cells were treated with the MTT solution (final concentration, 1 mg/ml) for 2 h. The dark blue formazan crystals formed in intact cells were dissolved in DMSO, and absorbance at 570 nm was measured with a microplate reader. Results were expressed as the percentage (%) of MTT reduction, assuming that the absorbance of control cells was 100%.

[2] = system: PC12 cells; test: LDH release assay, Aβ25-35-treated PC12 cells; format: cell-based, Rat; settings: 25 μM Aβ25-35-treated PC12 cells
Experimental: as §1
This assay measures the leakage of the soluble cytoplasmic LDH enzyme into the extracellular medium due to cell lysis. PC12 cells were plated at the same density as for the MTT assay described above. The amount of lactate was measured by monitoring the oxidation of L-lactic acid by NAD^+ in the presence of LDH to pyruvate. The culture media were transferred to 96-well plate and incubated with 1 mg/ml β-NAD^+ in pyruvate substrate solution at 37° C. for 30 min. […] The changes in absorbance were determined at 450 nm using a spectrophotometric microplate reader.

[3] = system: PARP; test: Western blot, Aβ25-35-induced cleavage of PARP; format: cell-based, Rat; settings: 25 μM Aβ25-35, 36 h
Experimental: After treatment, cells (1×10^7 cells/7 ml in 100φ dish) were collected and washed with PBS. After centrifugation, cell lysis was carried out at 4° C. by vigorous shaking for 15 min in RIPA buffer (150 mM NaCl, 1% NP-40, 0.5% sodium deoxycholate, 0.1% SDS, 50 mM Tris-HCl (pH 7.4), 50 mM glycerphosphate, 20 mM NaF, 20 mM EGTA, 1 mM DTT, 1 mM Na3VO4 and protease inhibitors). After centrifugation at 15,000 rpm for 15 min, supernatant was separated and stored at −70° C. until use. The protein concentration was determined by using the bicinchrinic acid (BCA) protein assay kit (Pierce, Rockford, Ill., USA). After addition of sample loading buffer, protein samples were electrophoresed on a 12.5% SDS-polyacrylamide gel. Proteins were transferred to polyvinylidene difluoride blots at 300 mA for 3 h. The blots were blocked for 1 h at room temperature in fresh blocking buffer (0.1% Tween-20 in Tris-buffered saline, pH 7.4 containing 5% non-fat dried milk). Dilutions (1:1000) of primary anti-poly(ADP-ribose)polymerase (PARP), anti-Bcl-XL and anti-Bax antibodies were made in PBS with 3% non-fat dry milk. Following three washes with PBST (PBS and 0.1% Tween-20), the blots were incubated with horseradish peroxidase-conjugated secondary antibodies in PBS with 3% non-fat dry milk for 1 h at room temperature. […]

[4] = system: tyrosine hydroxylase positive cells (TH+ cells) in the substantia nigra; test: 6-OHDA lesion rat model, TH+ cells in the substantia nigra; format: in vivo, Sprague-Dawley rats
Experimental: Male Sprague-Dawley rats with starting weights 225±25 g, were housed in groups of 3 with free access to food and water, under controlled temperature (21° C.±1° C.) and a 12 hour light/dark cycle (light on 07.00 hrs). All scientific procedures were carried out with the approval of the Home Office, U.K. Rats were administered, by gavage, 70 mg/kg of ergothioneine or vehicle (sterile distilled water) daily for 4 days (n=6 per group). On the 4th day, 1 hr after L-ergothioneine or vehicle administration, rats were anaesthetized with small animal Immobilon® (0.04 ml/rat, i.m.), and 6-OHDA (5 μg dissolved in 4 μl of 0.1% ascorbic acid/saline solution) was injected onto median forebrain bundle (stereotactic co-ordinates: 2.2 mm anterior, +1.5 lateral from bregma and −7.9 ventral to dura with ear bars 5 mm below incisor bars (Datla et al. (2001) Neuroreport 12:3871, which reference is herein specifically incorporated by reference in its entirety). One week after 6-OHDA lesioning, rats were killed by cervical dislocation and the brains were dissected out immediately. A coronal section was made at the level of hypothalamus and fore brain, and hind brain parts were separated. Hind-brain was fixed for 7 days in 4% paraformaldehyde, then cryo-protected with 30% sucrose solution for 2-3 days and used for tyrosine hydroxylase (TH) immuno-staining as described by Datla et al. (2001) supra. Briefly, TH was immuno-stained by incubating the 20 μm fixed coronal free-floating sections with polyclonal rabbit anti-TH (1:3000, Chemicon, U.K.) followed by biotinylated anti-rabbit IgG and avidin/biotin complex (Vector Lab, U.K.). The TH immuno-complex was then visualized by diaminobenzidine (DAB) and H2O2. Images of TH positive cells (TH+ cells) were captured by a Xillix CCD digital camera and counted automatically (Image Proplus, Datacell, U.K.). The number of TH+ cells in the substantia nigra on the control side was compared with the lesioned side by averaging the cells in 5 different levels (Datla et al. (2001) supra). […]

[5] = Dog; cited from earlier work

For C[N+](C)(C)[C@@H](Cc1c[nH]c(=S)[nH]1)C(=O)[O-] [L-ergothioneine, 2-mercaptohistidine trimethylbetaine], the “cytotoxic effect of Aβ25-35 (MTT reduction)” value [1] was “inhibited”, the LDH release [2] was “reduce the LDH release” and the “cleavage of PARP” value [3] was “inhibited”. For the same compound, the “improvement in terms of neuroprotection over the controls” value ([4]; L-ergothioneine vs vehicle treated group) was “approximately 20%”, the “number of TH+ cells on the control side of the brain” value ([4]; control (unlesioned) side, vs vehicle group) was “comparable” and the “reduction in the number of TH+ cells” value ([4]; lesioned vs control side, 70 mg/kg by gavage, one week after 6-OHDA lesioning) was 46%. The “L-Ergothioneine Concentration (mg/100 ml blood)” value [5] was 3-6 mg/100 ml blood.
